From ChEMBL document CHEMBL1150438, “Benzimidazole ribonucleosides: Observation of an unexpected nitration when performing non-aqueous diazotizations with t-butyl nitrite” (Bioorg Med Chem Lett, 1992)

Experiments:
[1] = test system: Human betaherpesvirus 5; experiment: Compound was tested for antiviral activity against human cytomegalovirus (HCMV) plaque reduction assay; assay type: functional, organism-based
[2] = test system: HFF; experiment: Cytotoxicity against human foreskin fibroblasts (HFF) cells; assay type: functional, cell-based
[3] = test system: Human alphaherpesvirus 1; experiment: Compound was tested for antiviral activity against HSV-1; assay type: functional, organism-based
[4] = test system: Human betaherpesvirus 5; experiment: Compound was tested for antiviral activity against human cytomegalovirus (HCMV) yield reduction assay; assay type: functional

## Nc1c(Cl)c(Cl)cc2c1nc(O)n2C1O[C@H](CO)[C@@H](O)[C@H]1O (some centres not stated)
[1]
  IC50: > 100 µM
[2]
  IC50: > 100 µM
[3]
  IC50: > 100 µM

## OC[C@H]1OC(n2c(I)nc3cc(Cl)c(Cl)cc32)[C@H](O)[C@@H]1O (some centres not stated)
[4]
  IC90: 26 µM
[2]
  IC50: 127 µM

## OC[C@H]1OC(n2c(O)nc3cc(Cl)c(Cl)cc32)[C@H](O)[C@@H]1O (some centres not stated)
[1]
  IC50: > 100 µM
[3]
  IC50: > 100 µM

## O=[N+]([O-])c1c(Cl)c(Cl)cc2c1nc(O)n2C1O[C@H](CO)[C@@H](O)[C@H]1O (some centres not stated)
[1]
  IC50: > 100 µM
[3]
  IC50: > 100 µM

## OC[C@H]1O[C@@H](n2cnc3cc(Cl)c(Cl)cc32)[C@H](O)[C@@H]1O [DICHLORORIBOBENZIMIDAZOLE]
[4]
  IC90: 19 µM

## Nc1nc2c(ncn2COC(CO)CO)c(=O)[nH]1 [GANCICLOVIR]
[4]
  IC90: 2 µM
[2]
  IC50: > 100 µM
